One may read the melting point as the temperature of the solid-liquid transition. Broadly, the boiling point is the temperature at which the vapour pressure of the liquid equals the pressure above it.

Settings in the first series: not given
`O=C(OC1CCCCC1)c1ccccc1C(=O)OC1CCCCC1`: the log10 vapour pressure (mmHg) is -6.06, the melting point came out at 66 °C and the ready biodegradability entry was “readily biodegradable”.

`CCC1(CCC(C)C)C(=O)NC(=O)NC1=O`: the melting point stood at 157 °C.

For `C=COCCCCCCCCCCCCCCCCCC`, the melting point turned out to be 30 °C.

Take `CCOC(=O)/C=C/C(=O)OCC`: the ready biodegradability entry is on record as “readily biodegradable”.

In turn, `O=S1(=O)CC=CC1` displayed a melting point of 64.5 °C.

For `O=CF`, the boiling point was -26.5 °C, the log10 vapour pressure (mmHg) was 3.46 and the melting point was -142 °C.

On to `c1ccc2c(c1)nnc1ccccc12`, for which the melting point was found to be 158 °C.

In turn, `CCSC(=O)N(CC(C)C)CC(C)C` registered a log10 Koc (L/kg) of 2.11 and a log10 vapour pressure (mmHg) of -1.89.

Compound `CCc1ccc(C)c(C)c1` came in with a boiling point of 190 °C, a log10 biodegradation half-life (days) of 0.699, a log10 vapour pressure (mmHg) of -0.126 and a melting point of -66.9 °C.

With `CCCCCCCCCCCCCCCCCCCCCCCCCCC`, the boiling point was found to be 442 °C, the log10 biodegradation half-life (days) amounted to 2.15, the log10 vapour pressure (mmHg) was -6.55 and the melting point worked out at 59.5 °C.

With `CCCCCCCCCCOC(C)=O`, the boiling point was 244 °C and the melting point was -15 °C.

Compound `C/C(=C\c1ccccc1)C(=O)O` had a log10 vapour pressure (mmHg) of -3.04 and a melting point of 80 °C.

With `O=NN1CCOCC1`, the boiling point worked out at 225 °C and the melting point was determined as 29 °C.

`Cc1cc(N)c(S(=O)(=O)O)cc1Cl`: the ready biodegradability result is given as “not readily biodegradable”.

As for `C#CCCC(C)C`, the boiling point was determined as 92 °C and the melting point is -125 °C.

Compound `Clc1ccc(Cl)c2ncccc12` had a melting point of 97.5 °C.

Regarding `CC(C)CC(C)(C)C`, the boiling point stood at 99.2 °C, the log10 biodegradation half-life (days) worked out at 1.6, the log10 vapour pressure (mmHg) turned out to be 1.69 and the melting point is -107 °C. The ready biodegradability entry is “not readily biodegradable”.

Compound `c1ccc2nncnc2c1` registered a boiling point of 238 °C and a melting point of 75.8 °C.

In the case of `S=C(SC(=S)N1CCCCC1)N1CCCCC1`, the melting point was 110 °C.

Turning to `O=C1CCCCCCCCCC1`, the log10 vapour pressure (mmHg) is -1.31.

As for `C=C(C)C1CC=C(C=O)CC1` (configuration not stated), the boiling point was determined as 240 °C.

On to `COP(=S)(OC)Oc1ccc([N+](=O)[O-])c(Cl)c1`, for which the log10 vapour pressure (mmHg) is -5.4 and the melting point worked out at 21 °C.

For the compound `CC(=O)OC(OC(C)=O)c1cccc([N+](=O)[O-])c1`, the melting point amounted to 72 °C.

In the case of `CC(=O)OC(C)CC(C)C` (configuration not stated), the boiling point turned out to be 148 °C, the log10 vapour pressure (mmHg) came out at 0.602, the melting point was -64 °C and the ready biodegradability result is listed as “readily biodegradable”.

`SCc1ccc(Cl)cc1`: the melting point was found to be 19.5 °C.

The compound `CCC=CC(C)C` returned a log10 vapour pressure (mmHg) of 1.88.

Turning to `CC(C)C(=O)Cl`, the boiling point came to 92 °C and the melting point is -90 °C.

The compound `CCC(=O)OCC(C)C` showed a boiling point of 137 °C, a log10 vapour pressure (mmHg) of 0.811 and a melting point of -71.4 °C.

`CC1(C)CCCC(C)(C)N1` showed a boiling point of 156 °C.

For the compound `NS(=O)(=O)c1cc2c(cc1Cl)CN(C1CCCCC1)C2=O`, the melting point came to 267 °C.

Regarding `ClCCCCCCl`, the boiling point stood at 179 °C, the log10 Henry constant (atm·m³/mol) was -3.25, the log10 vapour pressure (mmHg) was 0.0531 and the melting point was -72.8 °C.

In turn, `O=C(O)c1cc(Br)ccc1Br` registered a melting point of 157 °C.

Compound `C=C(C)c1cccc(C)c1` displayed a boiling point of 185 °C.

Turning to `CC(CCC(=O)O)n1nc2ccccc2n1` (configuration not stated), the melting point is 73 °C.

Regarding `CCOC(=O)Cc1[nH]nc2ccc(Cl)cc12`, the melting point came to 77 °C.

Consider `CC(C(N)=O)n1nc2ccccc2n1` (configuration not stated), for which the melting point was 170 °C.

Consider `O[C@@H]1[C@H]2CC[C@H](C2)[C@@H]1O`, for which the melting point came to 139 °C.

In turn, `CC(S)CS` (configuration not stated) showed a boiling point of 152 °C.

`CCC(C)=O` had a log10 Henry constant (atm·m³/mol) of -4.24, a log10 Koa of 2.71, a log10 vapour pressure (mmHg) of 1.96 and a melting point of -86.6 °C. For the same compound, the ready biodegradability result is on record as “readily biodegradable”.

In the case of `ClC1CCCCC1`, the boiling point was 142 °C, the log10 vapour pressure (mmHg) was 0.828, the melting point is -44 °C and the ready biodegradability entry was “not readily biodegradable”.

`N#CCc1ccc([N+](=O)[O-])cc1` had a melting point of 117 °C.

`O=C(C=Cc1ccccc1)OCC=Cc1ccccc1` registered a melting point of 44 °C.

As to `CCCNC`, the boiling point was found to be 62 °C.

`CC1=NN(c2ccccc2)C(=O)C1` had a melting point of 129 °C.

The compound `CC(C)C(=O)OCCc1ccccc1` gave a boiling point of 250 °C.

Turning to `Cc1cc(-c2ccc(N=C=O)c(C)c2)ccc1N=C=O`, the melting point is 71 °C.

Still in this series, the particulars now being: fish.
Turning to `COP(=S)(OC)Oc1ccc([N+](=O)[O-])c(Cl)c1`, the log10 BCF came out at 1.55 and the log10 biotransformation half-life (days) is -0.47.

In turn, `ClC1CCCCC1` gave a log10 BCF of 2.34 and a log10 biotransformation half-life (days) of 0.41.
